Experimental data reported in ChEMBL document CHEMBL4325847, “Dihydropyrazothiazole derivatives as potential MMP-2/MMP-8 inhibitors for cancer therapy” (Bioorg Med Chem Lett, 2018).

Columns and labels:
MCF7 [1] = test: Antiproliferative activity against human MCF7 cells after 48 hrs by MTT assay; format: functional, cell-based; conditions: MCF7, 48 h
HepG2 = test: Antiproliferative activity against human HepG2 cells after 48 hrs by MTT assay; format: functional, cell-based; conditions: HepG2, 48 h
HeLa = test: Antiproliferative activity against human HeLa cells after 48 hrs by MTT assay; format: functional, cell-based
[2] = target: 72 kDa type IV collagenase (Homo sapiens, UniProt P08253); test: Inhibition of recombinant human MMP-2 preincubated for 10 mins followed by Mca-PLGL-Dpa-AR-NH2 substrate addition and measured for 5 mins by fluorescence assay
72 kDa type IV collagenase, sequence (P08253 whole entry): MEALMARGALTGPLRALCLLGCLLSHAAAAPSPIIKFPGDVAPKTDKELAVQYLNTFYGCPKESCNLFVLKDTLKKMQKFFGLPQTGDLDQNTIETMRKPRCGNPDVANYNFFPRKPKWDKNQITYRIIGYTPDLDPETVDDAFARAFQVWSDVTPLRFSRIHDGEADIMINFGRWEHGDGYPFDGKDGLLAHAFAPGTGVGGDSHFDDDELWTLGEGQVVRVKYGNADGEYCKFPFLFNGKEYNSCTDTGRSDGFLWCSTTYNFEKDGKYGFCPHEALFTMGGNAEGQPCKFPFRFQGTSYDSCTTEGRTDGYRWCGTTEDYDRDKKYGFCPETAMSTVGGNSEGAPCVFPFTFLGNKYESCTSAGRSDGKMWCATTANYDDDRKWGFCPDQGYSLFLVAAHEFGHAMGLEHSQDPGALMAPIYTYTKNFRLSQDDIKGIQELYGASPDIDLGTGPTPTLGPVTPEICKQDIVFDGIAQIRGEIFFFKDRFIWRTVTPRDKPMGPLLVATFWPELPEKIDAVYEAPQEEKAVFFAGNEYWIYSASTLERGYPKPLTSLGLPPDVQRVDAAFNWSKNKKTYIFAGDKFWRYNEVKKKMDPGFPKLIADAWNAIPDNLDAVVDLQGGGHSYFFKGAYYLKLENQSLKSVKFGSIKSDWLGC

Neutrophil collagenase = Neutrophil collagenase (Homo sapiens, UniProt P22894); test: Inhibition of recombinant human MMP-8 using Mca-PLGL-Dpa-AR-NH2 as substrate preincubated for 10 mins followed by substrate addition and measured for 5 mins by fluorescence assay
Neutrophil collagenase, sequence (P22894 whole entry): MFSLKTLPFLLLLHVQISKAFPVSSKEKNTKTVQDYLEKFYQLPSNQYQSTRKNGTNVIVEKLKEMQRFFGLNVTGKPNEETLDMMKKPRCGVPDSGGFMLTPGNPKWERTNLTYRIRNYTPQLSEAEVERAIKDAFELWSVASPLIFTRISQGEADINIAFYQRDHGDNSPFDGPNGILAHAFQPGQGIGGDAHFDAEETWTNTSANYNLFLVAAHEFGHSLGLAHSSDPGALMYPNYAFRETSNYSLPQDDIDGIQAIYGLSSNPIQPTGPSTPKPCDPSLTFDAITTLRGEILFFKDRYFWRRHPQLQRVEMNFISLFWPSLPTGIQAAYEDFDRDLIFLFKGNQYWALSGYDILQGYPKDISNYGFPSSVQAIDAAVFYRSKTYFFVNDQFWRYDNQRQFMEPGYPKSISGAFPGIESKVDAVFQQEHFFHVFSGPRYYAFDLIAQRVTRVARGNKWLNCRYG

HEK-293T = test: Cytotoxicity against human 293T cells by MTT assay; format: cell-based
L02 = test: Cytotoxicity against human LO2 cells by MTT assay; format: cell-based
MCF7 [3] = test: Induction of apoptosis in human MCF7 cells assessed as live cells at 2 uM after 48 hrs by Annexin V-FITC/propidium iodide staining-based flow cytometric analysis (reference value: 91.8%); format: functional
MCF7 [4] = test: Induction of apoptosis in human MCF7 cells assessed as early apoptotic cells at 2 uM after 48 hrs by Annexin V-FITC/propidium iodide staining-based flow cytometric analysis (reference value: 2.54%); format: functional
MCF7 [5] = test: Induction of apoptosis in human MCF7 cells assessed as late apoptotic cells at 2 uM after 48 hrs by Annexin V-FITC/propidium iodide staining-based flow cytometric analysis (reference value: 5.33%); format: functional
MCF7 [6] = test: Induction of apoptosis in human MCF7 cells assessed as necrotic cells at 2 uM after 48 hrs by Annexin V-FITC/propidium iodide staining-based flow cytometric analysis (reference value: 0.343%); format: functional
MCF7 [7] = test: Induction of apoptosis in human MCF7 cells assessed as live cells at 8 uM after 48 hrs by Annexin V-FITC/propidium iodide staining-based flow cytometric analysis (reference value: 91.8%); format: functional
MCF7 [8] = test: Induction of apoptosis in human MCF7 cells assessed as early apoptotic cells at 8 uM after 48 hrs by Annexin V-FITC/propidium iodide staining-based flow cytometric analysis (reference value: 2.54%); format: functional
MCF7 [9] = test: Induction of apoptosis in human MCF7 cells assessed as late apoptotic cells at 8 uM after 48 hrs by Annexin V-FITC/propidium iodide staining-based flow cytometric analysis (reference value: 5.33%); format: functional
MCF7 [10] = test: Induction of apoptosis in human MCF7 cells assessed as necrotic cells at 8 uM after 48 hrs by Annexin V-FITC/propidium iodide staining-based flow cytometric analysis (reference value: 0.343%); format: functional
MCF7 [11] = test: Induction of apoptosis in human MCF7 cells assessed as live cells at 32 uM after 48 hrs by Annexin V-FITC/propidium iodide staining-based flow cytometric analysis (reference value: 91.8%); format: functional
MCF7 [12] = test: Induction of apoptosis in human MCF7 cells assessed as early apoptotic cells at 32 uM after 48 hrs by Annexin V-FITC/propidium iodide staining-based flow cytometric analysis (reference value: 2.54%); format: functional
MCF7 [13] = test: Induction of apoptosis in human MCF7 cells assessed as late apoptotic cells at 32 uM after 48 hrs by Annexin V-FITC/propidium iodide staining-based flow cytometric analysis (reference value: 5.33%); format: functional
MCF7 [14] = test: Induction of apoptosis in human MCF7 cells assessed as necrotic cells at 32 uM after 48 hrs by Annexin V-FITC/propidium iodide staining-based flow cytometric analysis (reference value: 0.343%); format: functional
MCF7 [15] = test: Induction of apoptosis in human MCF7 cells after 48 hrs by Annexin V-FITC/propidium iodide staining-based flow cytometric analysis; format: functional, cell-based

SMILES | IC50 (MCF7 [1]) [µM] | IC50 (HepG2) [µM] | IC50 (HeLa) [µM] | IC50 ([2]; read-out: IC50) [µM] | IC50 (Neutrophil collagenase) [µM] | CC50 (HEK-293T) [µM] | CC50 (L02) [µM] | further results
COc1ccc(C2=NN(c3nc(-c4ccc(OC)cc4)cs3)C(c3ccccc3O)C2)cc1 (configuration not stated) | 3.17 | 15.3 | 16.3 | 11.7 | 65.2 | 63 | 49.7 | 
Oc1ccccc1C1CC(c2ccc(F)cc2)=NN1c1nc(-c2ccc(C(F)(F)F)cc2)cs1 (configuration not stated) | 2.89 | 10.5 | 11.7 | 58.4 | 100 | 34.8 | 66.1 | 
C[C@@]1(O)c2cccc(O)c2C(=O)C2=C(O)[C@]3(O)C(=O)C(C(N)=O)=C(O)C[C@@H]3C[C@@H]21 |  |  |  | 1.29 | 21.9 |  |  | 
Oc1ccccc1C1CC(c2ccccc2)=NN1c1nc(-c2ccccc2)cs1 (configuration not stated) | 2.08 | 9.9 | 5.05 | 21.6 | 62.5 | 55.1 | 88.3 | IC50 ([2]; read-out: pIC50 (converted)): 21.4 µM
COc1ccc(C2=NN(c3nc(-c4cccc(OC)c4)cs3)C(c3ccccc3O)C2)cc1 (configuration not stated) | 3.72 | 12.6 | 13.7 | 2.8 | 25.6 | 35.2 | 56.2 | 
COc1ccc(C2=NN(c3nc(-c4cccc(Br)c4)cs3)C(c3ccccc3O)C2)cc1 (configuration not stated) | 4.42 | 7.55 | 13 | 14 | 48.1 | 24.5 | 68.7 | 
Oc1ccccc1C1CC(c2ccc(F)cc2)=NN1c1nc(-c2ccc(Br)cc2)cs1 (configuration not stated) | 1.47 | 15 | 2.7 | 12.3 | 48.8 | 52 | 48.2 | 
COc1ccc(-c2csc(N3N=C(c4ccc(F)cc4)CC3c3ccccc3O)n2)cc1 (configuration not stated) | 4.56 | 18.2 | 17 | 10.8 | 28.2 | 59.4 | 85.6 | 
COc1cccc(-c2csc(N3N=C(c4ccccc4)CC3c3ccccc3O)n2)c1 (configuration not stated) | 5.3 | 10.9 | 2.73 | 8.31 | 35.8 | 46.6 | 57.9 | 
Oc1ccccc1C1CC(c2ccccc2)=NN1c1nc(-c2cccc(Br)c2)cs1 (configuration not stated) | 1.07 | 21.7 | 5.51 | 28.3 | 86.5 | 41.8 | 42.3 | 
Oc1ccccc1C1CC(c2ccc(F)cc2)=NN1c1nc(-c2ccccc2)cs1 (configuration not stated) | 3.24 | 25 | 13.1 | 9.65 | 39.7 | 50.7 | 85.6 | 
COc1ccc(-c2csc(N3N=C(c4ccccc4)CC3c3ccccc3O)n2)cc1 (configuration not stated) | 1.03 | 11.9 | 8.64 | 11.2 | 48.9 | 57.1 | 72.4 | Activity (MCF7 [3]): 73%; Activity (MCF7 [4]): 4.44%; Activity (MCF7 [5]): 22.4%; Activity (MCF7 [6]): 0.216%; Activity (MCF7 [7]): 53.7%; Activity (MCF7 [8]): 2.57%; Activity (MCF7 [9]): 43.6%; Activity (MCF7 [10]): 0.207%; Activity (MCF7 [11]): 36.6%; Activity (MCF7 [12]): 2.29%; Activity (MCF7 [13]): 60.9%; Activity (MCF7 [14]): 0.198%; Activity (MCF7 [15]): Dose-dependent effect
Oc1ccccc1C1CC(c2ccccc2)=NN1c1nc(-c2ccc(Br)cc2)cs1 (configuration not stated) | 2.14 | 17.6 | 4.88 | 34.8 | 75.6 | 52.8 | 65.2 | 
Oc1ccccc1C1CC(c2ccc(F)cc2)=NN1c1nc(-c2cccc(Br)c2)cs1 (configuration not stated) | 8.01 | 18.4 | 10.8 | 16.2 | 60.1 | 70.1 | 59.4 | 
COc1cccc(-c2csc(N3N=C(c4ccc(F)cc4)CC3c3ccccc3O)n2)c1 (configuration not stated) | 4.01 | 17.8 | 9.73 | 6.7 | 36.4 | 39.1 | 43.8 | 
COc1ccc(C2=NN(c3nc(-c4ccccc4)cs3)C(c3ccccc3O)C2)cc1 (configuration not stated) | 2.39 | 23.3 | 18.2 | 12.9 | 30.5 | 64.1 | 75.2 | 
Oc1ccccc1C1CC(c2ccccc2)=NN1c1nc(-c2ccc(C(F)(F)F)cc2)cs1 (configuration not stated) | 3.5 | 8.85 | 2.25 | 48.2 | > 100 | 25.4 | 42.8 | 
COc1ccc(C2=NN(c3nc(-c4ccc(C(F)(F)F)cc4)cs3)C(c3ccccc3O)C2)cc1 (configuration not stated) | 11.1 | 12 | 29.3 | 58.8 | > 100 | 45.4 | 45.6 | IC50 ([2]; read-out: pIC50 (converted)): 57.5 µM
Cc1ccc(-c2cc(C(F)(F)F)nn2-c2ccc(S(N)(=O)=O)cc2)cc1 [CELECOXIB] | 6.96 | 0.78 |  |  |  | 55.8 | 78.2 | 
COc1ccc(C2=NN(c3nc(-c4ccc(Br)cc4)cs3)C(c3ccccc3O)C2)cc1 (configuration not stated) | 20.1 | 9.52 | 28.1 | 16.9 | 36.8 | 71.9 | > 100 | 
